{"source": "patent US20070292351A1", "about": "“Assay for efficacy of histone deacetylase inhibitors” (Methylgene, Inc., priority 2006, published 2007)", "key": {"Jurkat cells": {"tested_on": "Jurkat cells", "assay": "IL-6 transcription in Jurkat cells", "assay_type": "cell-based, human", "conditions": "24 hours (FIG. 14)", "procedure": "Quantitative PCR with SYBR Green I detection with Mastercycler® ep realplex (Eppendorf) was performed using LightCycler® 480 SYBR Green I Master (Roche Diagnostics). SYBR Green I assays were performed with 600 nM primers. All other reaction conditions were as described by the manufacturer. Amplification conditions were 5 minutes of initial denaturation at 95° C., followed by 40 cycles of each 15 seconds at 95° C., 15 seconds at 63.4° C., 20 seconds at 68° C., a melting curve from 60° C. to 95° C. was recorded. Quantification was performed using Pfaffl method, a relative quantification method in real-time PCR (Nucleic Acids Research 2001 29:2002-2007). Primers were synthesized by Invitrogen (Invitrogen-Canada, Burlington, Ont.)."}, "[1]": {"tested_on": "peripheral white blood cells from healthy volunteers", "assay": "Semi-quantitative PCR of MT3 in peripheral white blood cells treated ex vivo", "assay_type": "cell-based, human", "conditions": "24 hr or 48 hr (FIG. 6)", "procedure": "Peripheral white blood cells were isolated from healthy volunteers and treated ex vivo with MGCD0103 at indicated doses for 24 hr or 48 hr. RNA was extracted to monitor MT3 mRNA level by conventional semi-quantitative PCR (normalized to β-actin).\nWhole blood from either consenting healthy volunteers or consenting patients was centrifuged at 2500 rpm for 10 minutes at ambient temperature in a Sorvall RT-7 centrifuge (Mandel Scientific Co., Guelph, Ontario). Plasma was removed and buffy coat was collected. Five volumes of Erythrocyte Lysis Buffer (EL) (Qiagen Canada Inc., Mississauga, Ontario) were added into buffy coat. Buffy coat was incubated on ice for 20 minutes before it was centrifuged at 400 g for 10 minutes at 4° C. Supernatant was removed and buffy coat was washed twice with EL buffer and re-centrifuged. Buffy coat was resuspended in RPMI media and cells were counted with trypan blue exclusion. To isolate PBMCs, buffy coat cells were centrifuged over Lymphoprep (Axis-Shield, 1114544), and any remaining erythrocytes in the sample were lysed by treatment with EL lysis buffer (Qiagen, 79217). The cell pellets are washed and then re-suspended in RPMI containing 10% FBS.\nRNA was extracted from 8×10^6 cells using the Qiagen RNeasy Mini kit (cat#74106, Qiagen, Missisauga Ont.) following the manufacturer's instructions. […]"}, "[2]": {"tested_on": "human leukemic MV-4-11 cells", "assay": "Microarray gene expression analysis, MV-4-11 cells in vitro", "assay_type": "cell-based", "conditions": "MV-4-11 in vitro, 1 uM, c2-c5 = sample 1, 2, 3, sample 3 dye swap", "procedure": "Human cancer cell lines were from American Type Culture Collection (Manassas, Va.) and were all cultured following the vendor's instructions.\nBiological analysis was performed using Biointerpreter software."}}, "note": "Values joined by “and” are separate entries in the source; they are usually repeats but may differ in a detail not shown here. Identical values can stand only once.", "data": [{"smiles": "Nc1ccccc1NC(=O)c1ccc(CNc2nccc(-c3cccnc3)n2)cc1", "note": "[MGCD0103]", "values": [{"measurement": "dose-dependent induction of IL-6 transcription", "setting": "Jurkat cells", "result": "dose-dependent induction"}, {"measurement": "Induction of MT3 transcription ex vivo", "setting": "[1]", "result": "time-dependent and dose-dependent"}, {"measurement": "Ratio vs control, ADORA1", "setting": "[2]", "result": "3.6 and 5.4 and 5.1"}, {"measurement": "Ratio vs control, AHR", "setting": "[2]", "result": "11.3 and 10.5 and 13.1 and 10.2"}, {"measurement": "Ratio vs control, APOE", "setting": "[2]", "result": "5.9 and 6.3 and 6.0 and 6.1"}, {"measurement": "Ratio vs control, AXUD1", "setting": "[2]", "result": "2.5 and 3.9 and 3.1"}, {"measurement": "Ratio vs control, BMF", "setting": "[2]", "result": "6.0 and 7.4 and 6.7 and 7.1"}, {"measurement": "Ratio vs control, CARD10", "setting": "[2]", "result": "2.7 and 4.4 and 3.0 and 3.9"}, {"measurement": "Ratio vs control, CASP5", "setting": "[2]", "result": "2.7 and 2.5 and 3.0 and 2.6"}, {"measurement": "Ratio vs control, CASP7", "setting": "[2]", "result": "5.0 and 7.2 and 5.2 and 5.8"}, {"measurement": "Ratio vs control, CAST", "setting": "[2]", "result": "2.7 and 3.0 and 2.5 and 3.2"}, {"measurement": "Ratio vs control, CD40", "setting": "[2]", "result": "8.0 and 7.2 and 7.0 and 8.7"}, {"measurement": "Ratio vs control, CDKN1A", "setting": "[2]", "result": "4.4 and 4.0 and 4.6 and 3.9"}, {"measurement": "Ratio vs control, CLU", "setting": "[2]", "result": "20.2 and 13.8 and 14.7 and 14.4"}, {"measurement": "Ratio vs control, DNASE2", "setting": "[2]", "result": "10.5 and 11.4 and 12.1 and 12.9"}, {"measurement": "Ratio vs control, EIF2AK2", "setting": "[2]", "result": "17.9 and 21.1 and 18.1 and 26.7"}, {"measurement": "Ratio vs control, GPR65", "setting": "[2]", "result": "7.8 and 6.5 and 7.9 and 6.6"}, {"measurement": "Ratio vs control, HIPK2", "setting": "[2]", "result": "4.1 and 6.6 and 4.6 and 4.2"}, {"measurement": "Ratio vs control, IL1B", "setting": "[2]", "result": "9.6 and 11.2 and 8.5 and 11.4"}, {"measurement": "Ratio vs control, IL3RA", "setting": "[2]", "result": "4.4 and 4.3 and 5.1 and 3.3"}, {"measurement": "Ratio vs control, IL18", "setting": "[2]", "result": "4.5 and 7.9 and 6.5 and 5.5"}, {"measurement": "Ratio vs control, LY86", "setting": "[2]", "result": "4.5 and 3.6 and 3.8 and 4.3"}, {"measurement": "Ratio vs control, MAP3K14", "setting": "[2]", "result": "2.6 and 2.8"}, {"measurement": "Ratio vs control, MX1", "setting": "[2]", "result": "35.8 and 27.5 and 38.0 and 23.2"}, {"measurement": "Ratio vs control, NALP1", "setting": "[2]", "result": "7.3 and 7.4 and 6.4"}, {"measurement": "Ratio vs control, NGFR", "setting": "[2]", "result": "3.0 and 2.7 and 2.6 and 2.8"}, {"measurement": "Ratio vs control, PDE1B", "setting": "[2]", "result": "4.3 and 3.4 and 4.8 and 3.6"}, {"measurement": "Ratio vs control, PPP3CA", "setting": "[2]", "result": "2.7 and 3.0 and 3.3 and 2.6"}, {"measurement": "Ratio vs control, PRKAR2B", "setting": "[2]", "result": "10.8 and 7.2 and 11.1 and 7.6"}, {"measurement": "Ratio vs control, TNFRSF21", "setting": "[2]", "result": "4.1 and 6.4 and 4.7 and 5.2"}, {"measurement": "Ratio vs control, TNFRSF25", "setting": "[2]", "result": "4.2 and 4.0 and 4.4 and 3.6"}, {"measurement": "Ratio vs control, TNFSF10", "setting": "[2]", "result": "7.4 and 7.2 and 10.1 and 5.6"}, {"measurement": "Ratio vs control, TNFSF14", "setting": "[2]", "result": "5.1 and 3.7 and 3.9 and 4.6"}, {"measurement": "Ratio vs control, BNIP3L", "setting": "[2]; gene listed twice (r23, r58)", "result": "4.9 and 3.2 and 3.4 and 2.6 and 3.5 and 2.9"}, {"measurement": "Ratio vs control, CASP4", "setting": "[2]; gene listed twice (r64, r66)", "result": "2.7 and 2.8 and 2.6 and 2.9 and 3.0 and 2.5 and 3.1"}]}]}
